Converted amounts (≈) assume the structure as drawn.
Assays:
[1] = tested on: P. falciparum K1 strain (Thailand resistant to chloroquine); assay: semiautomated microdilution assay, [3H]-hypoxanthine incorporation, K1 strain; format: cell-based, Plasmodium falciparum; conditions: K1 strain, 72 h incubation
Summary of the method: (§1)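 Intraerythrocytic stages from unsynchronised stock cultures are exposed to test compounds in a semiautomated microdilution format, and fifty percent inhibitory concentrations are then fitted by logit regression.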

[2] = tested on: P. falciparum NF54 strain (sensitive to standard antimalarials); assay: semiautomated microdilution assay, [3H]-hypoxanthine incorporation, NF54 strain; format: cell-based, Plasmodium falciparum; conditions: NF54 strain, 72 h incubation
Summary of the method: as §1

[3] = tested on: ANKA strain of P. berghei; assay: single dose STI in vivo screen in infected mice; design: species or system Plasmodium berghei; conditions: for Activity (%) po / Survival (days) po: single 10 mg/kg po in 3% ethanol and 7% Tween 80; for Activity (%) po / Activity (%) sc / Activity (%) SSVpo: mice; for Activity (%) sc / Survival (days) sc: single 10 mg/kg sc in 3% ethanol and 7% Tween 80; for Activity (%) SSVpo: single po dose in standard suspending vehicle (SSV); for Survival (days) po / Survival (days) sc / Survival (days) SSVpo: untreated control 5.6 ± 0.3; for Survival (days) SSVpo: single po dose in SSV
Summary of the method: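 Groups of 3-5 Moro SPF or NMRI mice infected with the ANKA strain of P. berghei received a single dose of trioxolane on day one post-infection. The compound was given in 3% ethanol and 7% Tween 80 or in SSV (0.5% w/v CMC, 0.5% v/v benzyl alcohol, 0.4% v/v Tween 80, 0.9% w/v sodium chloride in water). Antimalarial activity was scored as percent reduction in parasitemia on day three and as survival time versus untreated controls. Survival to day 30 counted as cure.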

[4] = percent reduction in parasitemia day 3 post-infection

Row | SMILES | IC50 (ng/ml) K1 [1] | IC50 (ng/ml) NF54 [2] | Activity (%) po [3, 4] | Activity (%) sc [3, 4] | Activity (%) SSVpo [3, 4] | Survival (days) po [3] | Survival (days) sc [3] | Survival (days) SSVpo [3] | Activity (%) 3 mg/kg SSV po ([3]; percent reduction in parasitemia day 3 post-infection, single 3 mg/kg po in SSV) | Activity (%) 10 mg/kg SSV po ([3]; percent reduction in parasitemia day 3 post-infection, single 10 mg/kg po in SSV) | Survival (days) 10 mg/kg SSV po ([3]; single 10 mg/kg po in SSV) | IC50 ([1]; Plasmodium falciparum, read-out: IC50 (ng/ml) K1) | IC50 ([2]; Plasmodium falciparum, read-out: IC50 (ng/ml) NF54)
1 | C1C2CC3CC1CC(C2)C31OOC2(CCC(NC3CC3)CC2)O1 (stereo not shown) [OZ185] | 1.1 ng/mL (≈ 0.00344 µM) | 1.4 ng/mL (≈ 0.00438 µM) | 86% | 99.96% | 56% | 7.7 days | 10.7 days | 6.7 days | – | – | – | – | –
2 | c1ccc(C2CCC3(CC2)OOC2(CCC(c4ccccc4)CC2)O3)cc1 (stereo not shown) [OZ62] | 33 ng/mL (≈ 0.0905 µM) | 28 ng/mL (≈ 0.0768 µM) | 0/NA/0% | 0/NA/0% | – | 6.0 days | 5.0 days | – | – | – | – | – | –
3 | CC1(C)C2CCC1(CS(=O)(=O)N1CCC3(CC1)OOC1(O3)C3CC4CC(C3)CC1C4)C(=O)C2 (stereo not shown) [OZ91] | 1.4 ng/mL (≈ 0.00292 µM) | 0.42 ng/mL (≈ 0.000876 µM) | 20% | 85% | 0% | 5.7 days | 7.3 days | 6.0 days | – | – | – | – | –
4 | O=[N+]([O-])c1cc(C2(c3ccc(Cl)c([N+](=O)[O-])c3)OOC3(O2)C2CC4CC(C2)CC3C4)ccc1Cl (stereo not shown) [OZ96] | 8.4 ng/mL (≈ 0.0166 µM) | > 10 ng/mL | 12% | 19% | 14% | 5.7 days | 5.3 days | 5.7 days | – | – | – | – | –
5 | CCOC(=O)c1ccc(C2(c3ccc(C(=O)OCC)cc3)OOC3(O2)C2CC4CC(C2)CC3C4)cc1 (stereo not shown) [OZ125] | 68 ng/mL (≈ 0.138 µM) | > 100 ng/mL | 8% | 0% | 0% | 5.3 days | 6.0 days | 5.7 days | – | – | – | – | –
6 | Clc1ccc2c(NCCNC3CCC4(CC3)OOC3(O4)C4CC5CC(C4)CC3C5)ccnc2c1 (stereo not shown) [OZ258] | 5.8 ng/mL (≈ 0.012 µM) | 5.2 ng/mL (≈ 0.0107 µM) | 75% | 99.95% | 70% | 6.0 days | 10.7 days | 6.0 days | – | – | – | – | –
7 | C1CCC2(CC1)OOC1(CCCCC1)O2 [OZ01] | >100/>100 ng/ml | >100/>100 ng/ml | 0/NA/0^1% | 0/NA/0^1% | – | 5.3/NA/5.3^1 days | 5.3/NA/5.3^1 days | – | – | – | – | – | –
8 | CS(=O)(=O)C[C@H]1CC[C@]2(CC1)OO[C@]1(O2)C2CC3CC(C2)CC1C3 [OZ307] | 0.62 ng/mL (≈ 0.00174 µM) | 0.88 ng/mL (≈ 0.00247 µM) | – | – | – | – | – | – | 74% | 98% | 9.4 days | – | –
9 | c1ccc2c(c1)CCC1(C2)OOC2(O1)C1CC3CC(C1)CC2C3 (stereo not shown) [OZ85] | 0.86 ng/mL (≈ 0.00275 µM) | 1.8 ng/mL (≈ 0.00576 µM) | 34% | 99.7% | – | 6.0 days | 8.3 days | – | – | – | – | – | –
10 | COC(=O)C1(c2ccccc2)CCC2(CC1)OOC1(O2)C2CC3CC(C2)CC1C3 (stereo not shown) [OZ98] | 2.3 ng/mL (≈ 0.00577 µM) | 0.9 ng/mL (≈ 0.00226 µM) | 72% | 77% | 11% | 6.3 days | 7.3 days | 5.3 days | – | – | – | – | –
11 | c1ccc(C2(c3ccccc3)OOC3(O2)C2CC4CC(C2)CC3C4)cc1 (stereo not shown) [OZ42] | 2.3 ng/mL (≈ 0.0066 µM) | 2.6 ng/mL (≈ 0.00746 µM) | 68% | 92% | – | 6.0 days | 7.0 days | – | – | – | – | – | –
12 | O=C(OCCn1ccnc1)C1CCC2(CC1)OOC1(O2)C2CC3CC(C2)CC1C3 (stereo not shown) [OZ182] | 4.5 ng/mL (≈ 0.0112 µM) | 5.5 ng/mL (≈ 0.0137 µM) | 91% | 95% | 96% | 8.0 days | 7.7 days | 7.3 days | – | – | – | – | –
13 | O=C1c2ccccc2C(=O)N1CC[C@H]1CC[C@]2(CC1)OOC1(O2)C2CC3CC(C2)CC1C3 (stereo partly shown) [OZ215] | 6.4 ng/mL (≈ 0.0146 µM) | 7.3 ng/mL (≈ 0.0167 µM) | 96% | 39% | 25% | 9.7 days | 7.0 days | 6.3 days | – | – | – | – | –
14 | Cc1ccc(S(=O)(=O)NN=C2CCC3(CC2)OOC2(O3)C3CC4CC(C3)CC2C4)cc1 (stereo not shown) [OZ39] | 1.4 ng/mL (≈ 0.00314 µM) | 1.8 ng/mL (≈ 0.00403 µM) | 61% | 99.3% | – | 6.3 days | 7.7 days | – | – | – | – | – | –
15 | O=C(O)c1cncn1C[C@H]1CC[C@]2(CC1)OOC1(O2)C2CC3CC(C2)CC1C3 (stereo partly shown) [OZ231] | >10/>10 ng/ml | >10/>10 ng/ml | 0/0/0% | 0/0/0% | 0/0/0% | 5.3 days | 6.0 days | 5.7 days | – | – | – | – | –
16 | CC(=O)OC(C)(C)C(=O)N[C@H]1CC[C@]2(CC1)OOC1(O2)C2CC3CC(C2)CC1C3 (stereo partly shown) [OZ202] | 6.0 ng/mL (≈ 0.0147 µM) | 7.9 ng/mL (≈ 0.0194 µM) | 79% | 74% | 51% | 7.0 days | 7.3 days | 7.3 days | – | – | – | – | –
17 | O=C1CCC2(CCO1)OOC1(O2)C2CC3CC(C2)CC1C3 (stereo not shown) [OZ17] | – | – | 0% | 18% | – | 5.3 days | 6.3 days | – | – | – | – | 85 ng/mL (≈ 0.289 µM) | > 100 ng/mL
18 | CN(C)C(=O)NC[C@H]1CC[C@]2(CC1)OOC1(O2)C2CC3CC(C2)CC1C3 (stereo partly shown) [OZ266] | 1.1 ng/mL (≈ 0.00302 µM) | 1.5 ng/mL (≈ 0.00412 µM) | 99% | 99.75% | 99.39% | 13.7 days | 11.7 days | 11.7 days | – | – | – | – | –
19 | O=C(O)CCC[C@H]1CC[C@]2(CC1)OOC1(O2)C2CC3CC(C2)CC1C3 (stereo partly shown) [OZ261] | 39 ng/mL (≈ 0.111 µM) | 18 ng/mL (≈ 0.0514 µM) | 61% | 92% | 47% | 7.0 days | 8.0 days | 7.0 days | – | – | – | – | –
20 | c1ccc(C2(c3ccccc3)CCC3(CC2)OOC2(O3)C3CC4CC(C3)CC2C4)cc1 (stereo not shown) [OZ34] | 42 ng/mL (≈ 0.101 µM) | 60 ng/mL (≈ 0.144 µM) | 0/NA/0% | 0/NA/0% | – | 5.3 days | 5.7 days | – | – | – | – | – | –
21 | O=S(=O)(c1ccccc1)N1CCC2(CC1)OOC1(O2)C2CC3CC(C2)CC1C3 (stereo not shown) [OZ60] | 1.1 ng/mL (≈ 0.00271 µM) | 1.2 ng/mL (≈ 0.00296 µM) | 71% | 100% | – | 6.0 days | 10.3 days | – | – | – | – | – | –
22 | C1C2CC3CC1CC(C2)C31OO[C@]2(CC[C@@H](CN(C[C@H]3CC[C@]4(CC3)OOC3(O4)C4CC5CC(C4)CC3C5)C3CC3)CC2)O1 (stereo partly shown) [OZ254] | > 100 ng/mL | 57 ng/mL (≈ 0.0935 µM) | 27% | 2% | 11% | 6.0 days | 5.7 days | 5.7 days | – | – | – | – | –
23 | O=C1c2ccccc2C(=O)N1CC1(c2ccccc2)CCC2(CC1)OOC1(O2)C2CC3CC(C2)CC1C3 (stereo not shown) [OZ97] | 2.2 ng/mL (≈ 0.0044 µM) | 1.8 ng/mL (≈ 0.0036 µM) | 59% | 66% | 2% | 6.7 days | 7.0 days | 5.3 days | – | – | – | – | –
24 | BrC[C@H]1CC[C@]2(CC1)OOC1(O2)C2CC3CC(C2)CC1C3 (stereo partly shown) [OZ123] | 1.6 ng/mL (≈ 0.00448 µM) | 1.9 ng/mL (≈ 0.00532 µM) | 99.66% | 99.96% | 94% | 8.0 days | 16 days | 7.0 days | – | – | – | – | –
25 | COCC(=O)N(C1CCCCC1)C1CCC2(CC1)OOC1(O2)C2CC3CC(C2)CC1C3 (stereo not shown) [OZ174] | 27 ng/mL (≈ 0.0623 µM) | 34 ng/mL (≈ 0.0784 µM) | 0% | 90% | 15% | 6.7 days | 10.3 days | 7.3 days | – | – | – | – | –
